Data on two molecules can be found in patent US7629347B2, “Protein tyrosine kinase inhibitors” (Critical Outcome Technologies, Inc., priority 2002, dated 2009).

For one data set, the system named is Leukemia Cell Line K562. Nature of the data set: in vitro test on cell line K562. It is filed as cell-based. Conditions: Homo sapiens. How it is done: (§1) The COTI-001 compound was tested in vitro on a variety of cell lines comparing its effect to a known protein tyrosine kinase inhibitor used in the treatment of certain cancers.
The test system of the next data set is Leukemia Cell Line P388. Nature of the data set: in vitro test on cell line P388. It counts as cell-based, murine. Conditions: Mus musculus. How it is done:
as §1

Data set [1] deals with Breast Cancer Cell Line MCF7. Nature of the data set: in vitro test on cell line MCF7. It is filed as cell-based. Conditions: Homo sapiens, MCF7, read-out: Actual −Log(GI50) (converted). How it is done:
as §1

The test system of data set [2] is mice. Nature of the data set: in vivo toxicity study in mice.
Experimental: (§2) Five groups of mice (3 mice per group) were administered a 50 mg/kg dosage of Formula II.
The subject of data set [3] is mice. Conditions: mouse, in vivo, 50 mg/kg.
Experimental: as §2

Each structure is given as a SMILES string. Counter-ions that a name gives are not always drawn. Like-named read-outs stand apart in the source and are kept apart here.

For orientation: GI50 means the concentration at which growth is held to half of that of the control. Take `CC1CN=C(c2ccc(NC(=O)c3ccc(C(=O)Nc4ccc(C5=NCC(C)CN5)cc4)nc3)cc2)NC1` (centres unmarked) [Formula II, N,N′-Bis[4-(1,4,5,6-tetrahydro-5-methyl-2-pyrimidinyl)phenyl]-2,5-pyridinedicarboxamide dihydrochloride]: the GI50 with Leukemia Cell Line K562 (K562, read-out: Actual −Log(GI50) (converted)) is 20000 nM; in the data set on Leukemia Cell Line P388 (P388, read-out: Actual −Log(GI50) (converted)), 1000 nM; in data set [1], 20000 nM. The molecule also came in with a tolerated dosage with mice [2] of at most 25 mg/kg. For the same molecule, the tolerability of dosage result in the data set with mice [2] (50 mg/kg dosage) was “not tolerated”.
In the case of `Cc1ccc(NC(=O)c2ccc(CN3CCN(C)CC3)cc2)cc1Nc1nccc(-c2cccnc2)n1` [Gleevec ™, reference compound], the GI50 is 1000 nM in the data set on Leukemia Cell Line K562 (Leukemia Cell Line K562, in vitro result, read-out: Actual −Log(GI50) (converted)) and 2000 nM in the data set on Leukemia Cell Line P388 (Leukemia Cell Line P388, in vitro result, read-out: Actual −Log(GI50) (converted)). In addition, the tolerability of dosage result in the data set with mice [3] is listed as “able to tolerate this dosage amount”.
